Experimental data reported in patent US9073856B2, “Phenyl methanesulfonamide derivatives useful as MGAT-2 inhibitors” (Eli Lilly and Company, priority 2012, dated 2015).
Where a name gives a salt, the structure may show the parent alone.

Experiments:
human MGAT-2 [1] = target: T1, human MGAT-2 (Homo sapiens, UniProt Q3SYC2); assay: MGAT-2 Cell Assay (Caco-2 cells stably transfected with human MGAT-2, HDG substrate, LC-MS); type: cell-based; details: HDG/DOPC
Experimental: The inhibitory activity of compounds against human MGAT-2 in a cell environment is evaluated in this assay. Caco-2 is a human colon carcinoma cell line and is often used as a model for intestinal epithelial cells. […] A MAG analogue, 2-O-Hexadecylglycerol (HDG), is utilized to detect cellular MGAT-2 activity, because HDG is not be hydrolyzed and the resulting product is readily monitored by mass spectrometry. The substrate is delivered to cells using phospholipid vesicles.
Seed the Caco2 cells onto 100 mm dishes to be 80% confluent after 24 hours in complete media (3/1 DMEM: F12+10% FBS+20 mM HEPES+gentamicin). Transfect the cells with hMGAT-2 plasmid (MGAT-2-pCDNA3.1-Hygro) using Lipofectamine 2000 (Invitrogen). After a 6 hour exposure to the transfection mixture, wash the cells 3× in PBS and then add media. Incubate the cells for an additional 18 hours incubation, trypsinize the cells and serially dilute them into 100 mm dishes. Added complete media+400 μg/ml hygromycin and incubate until clones appear. Isolate and transfer the clones into 24 well dishes and grow to confluency. Prepare the RNAs from these clones using a Qiagen RNAeasy kit. Perform Taqman analysis using an ABI inventoried assay (HS00228262) on a 7900 Sequence Detection System (ABI). Analyze the lysates from these clones western blot analysis using a goat polyclonal antibody (Santa Cruz, SC-32392 to confirm human MGAT-2 expression of a 38 Kdal protein corresponding to MGAT-2.
Mix 2-O-hexadecylglycerol (“HDG”, Biosynth Chemistry & Biology, # H-1806, 562.7 μl of 20 mg/ml) and DOPC (14.3 ml of 20 mg/ml) in a glass tube; dry first under N2 gas; and then under vacuum for additional 30 minutes. Add 20 ml of buffer (150 mM Tris-Cl pH 7.4, 250 mM Sucrose, 1 mM EDTA) to the dried HDG/DOPC mixture while sonicating until the solution becomes clear. Plate the Caco2 cells into a poly-D-lysine coated 96-well plate (the “Cell Plate”) at 37° C., 5% CO2 overnight. Remove the growth media and pretreat the cells with the test compound in DMEMF12 (3:1) media (GIBCO 93-0152DK) containing 2% BSA (Sigma) for 30 minutes. Treat the cells with one test compound in 2% BSA DMEMF12 (3:1) media containing 40 μM of oleic acid and 800 μM of 8.9% HDG/DOPC for 4 hours. Trypsinize the cells with 50 μl of trypsin and add 50 μl of PBS. Immediately freeze the cells on dry ice and store at −20° C. for LC-MS analysis. Extract the cells with chloroform/methanol as follows transfer the cells to a 2 ml Plate; wash the Cell Plate with 200 μL methanol and then transfer the methanol wash to the 2 ml Plate; wash the Cell Plate again with 200 μL PBS and transfer the PBS wash to the 2 ml Plate. Add chloroform (400 μL) with internal standard (19.52 ng/mL) DAG (15:0,15:0 (Sigma)), D5-TAG (39.03 ng/mL) CDN (16,16,16) to the 2 mL Plate. […]

TAG absorption = assay: Dog Oil Bolus Model (plasma TAG after olive oil bolus); type: in vivo; details: male beagles, olive oil 5 ml/kg
Experimental: Inhibiting MGAT-2 found in the small intestine may be useful for treating hypertriglyceridemia caused by excessive fat intake. To assess the ability of the exemplified compounds to inhibit TAG absorption, twenty one male beagles (n=7 per treatment group) are enrolled for each study each dog selected to have a body weight between 9-13 kg. House the dogs in cages with a standard light cycle (12 hours light and 12 hours dark); at room temperature: 72±8° F.; and at 30%-70% relative humidity. Fast the dogs for 16 hours prior to the start of the study, then dose the fasted dogs with vehicle (1% HEC, 0.25%, Tween 80, Antifoam) or one of the test compounds. Bleed the dogs one hour after dosing, (0.5 ml from the jugular vein) for a time 0 sample. Dose the dogs with olive oil (Sigma Catalog#: O-1514, 5 ml/kg) immediately after collection of the time 0 sample. Collect samples into an EDTA tube on ice at 1.5, 2, 3, 5, 7, and 9 hrs post compound/vehicle dosing. […]
The analyte is the [M+NH4]+ ion of TAG 18:1 18:1 18:1, which has a mass of 902.8 m/z; the internal standard is D5 TAG 16:0 16:0 16:0, which has a mass of 829.8 m/z. […] The percent inhibition of plasma triglyceride is calculated as follows: the (oil bolus group mean of net TAG AUC−oil bolus group mean of net TAG AUC with compound treatment/oil bolus group mean of net TAG AUC)*100. […]

human MGAT-2 [2] = target: T1, human MGAT-2; assay: MGAT-2 Inhibitory Assay (14C-oleoyl-CoA, Microscint E extraction, SF9 cell lysate); type: biochemical; design: made in house; host or cells: Insect SF9 cells (supernatant of homogenate, unpurified); details: human MGAT-2 expressed in SF9 cells, 90 minutes, room temperature; read-out: IC50 in MGAT-2 in vitro assay
Experimental: The in vitro inhibitory activity of compounds against human MGAT-2 is evaluated in this assay. MGAT-2 transfers an oleoyl group to monooleoyl-glycerol (“MAG”) from oleoyl-CoA to form dioleoyl-glycerol (“DAG”) in the intestinal triglyceride resynthesis pathway. The assay takes advantage of Microscint E extraction, which extracts hydrophobic molecules selectively over hydrophilic ones to separate the ^14C-oleoyl-CoA from ^14C-DAG.
Insect SF9 cells express human MGAT-2. Prepare the cell lysate in 20 mM of NaCl with protease inhibitor (Roche Cat#11873580001). Homogenize the SF9 cells expressing human MGAT-2 at 15,000 rpm for 20×2 seconds (PT-3100 Polytrone). Centrifuge the homogenate at 1000 g for 10 minutes at 4° C. Collect the supernatant into a separate tube for protein quantification and activity testing. Purify the glycerol monooleate substrate (Spectrum Chemical, CAS#25496-72-4) chromatographically. Prepare the monoacylglyerol (MAG) substrate in phospholipid vescicles (dioleoyl phosphatidylcholine “DOPC”). Prepare the MAG/DOPC vesicles at 20 mM concentration of total lipids (MAG and DOPC). Prepare different molar ratios of MAG to total lipids for either compound screening (8.9%) or compound kinetic studies (2.6-40%). Mix the appropriate amount of purified MAG and DOPC (Avanti Polar Lipids #850375C) in a glass tube under N2 gas and then dry under vacuum for 30 minutes. […]

[3] = Caco-2 cells expressing human MGAT-2, 4 hours, read-out: Basal Triglyceride Caco 2 Relative IC50

T1 sequence (Q3SYC2 whole entry): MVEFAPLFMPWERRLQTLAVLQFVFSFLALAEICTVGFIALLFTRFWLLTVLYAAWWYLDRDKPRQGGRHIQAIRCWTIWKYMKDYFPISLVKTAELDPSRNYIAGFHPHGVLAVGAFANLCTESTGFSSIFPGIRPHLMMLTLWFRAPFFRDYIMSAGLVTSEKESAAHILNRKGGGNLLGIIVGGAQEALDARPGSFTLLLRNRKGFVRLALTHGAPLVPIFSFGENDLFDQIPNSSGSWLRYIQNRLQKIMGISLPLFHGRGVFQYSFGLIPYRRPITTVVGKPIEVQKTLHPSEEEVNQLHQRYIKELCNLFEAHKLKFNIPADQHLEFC

Row | IC50 (human MGAT-2 [1]; [3]) | Structure (SMILES) | IC50 (human MGAT-2 [1]; Basal Triglyceride Caco 2 Relative IC50, Caco-2 cells expressing human MGAT-2, 4 hours) | inhibition of TAG absorption (percent inhibition of net plasma TAG AUC) (TAG absorption; dosed at 10 mg/kg) | inhibition of TAG absorption (TAG absorption; dosed at 30 mg/kg) | IC50 (human MGAT-2 [2])
1 |  | CC(C)(C)C1CCN(Cc2ccc([C@H](NS(C)(=O)=O)C(F)(F)F)cc2)CC1.Cl [Example 1, N-[(1S)-1-[4-[(4-tert-Butylpiperidin-1-yl)methyl]phenyl]-2,2,2-trifluoro-ethyl]methanesulfonamide hydrochloride] | 58.2 nM | 69% | completely inhibited | < 12 nM
2 | 64.2 nM | C[C@@H](NS(C)(=O)=O)c1ccc(CN2CCC(c3ccc(F)cc3)CC2)cc1 [Example 5, N-[(1R)-1-(4-{[4-(4-fluorophenyl)piperidin-1-yl]methyl}phenyl)ethyl]methanesulfonamide hydrochloride] |  |  |  | 
3 | 17.7 nM | CS(=O)(=O)N[C@@H](c1ccc(CN2CCC(c3ccc(F)cc3)CC2)cc1)C(F)(F)F [Example 4, N-[(1S)-2,2,2-trifluoro-1-(4-{[4-(4-fluorophenyl)piperidin-1-yl]methyl}phenyl)ethyl]methanesulfonamide hydrochloride] |  |  |  | 

Row | Structure (SMILES) | IC50 (human MGAT-2 [1]; [3]) | IC50 (human MGAT-2 [1]; Basal Triglyceride Caco 2 Relative IC50, Caco-2 cells expressing human MGAT-2, 4 hours) | inhibition of TAG absorption (percent inhibition of net plasma TAG AUC) (TAG absorption; dosed at 10 mg/kg) | inhibition of TAG absorption (TAG absorption; dosed at 30 mg/kg) | IC50 (human MGAT-2 [2])
4 | CC(C)(C)C1CCN(Cc2ccc([C@H](NS(C)(=O)=O)C(F)(F)F)cc2)CC1 [Example 2, N-[(1S)-1-{4-[(4-tert-butylpiperidin-1-yl)methyl]phenyl}-2,2,2-trifluoroethyl]methanesulfonamide phosphoric acid] | 102 nM |  |  |  | 
